Results on 2 compounds are retold here after patent US12691101B2, “Compound and method for preventing or treating of respiratory diseases comprising the same as an active ingredient” (YONSEI UNIVERSITY, UNIVERSITY - INDUSTRY FOUNDATION (UIF), priority 2019, dated 2026).

The test system of series [1] is AN01, CFTR and ENaC mRNA. Description: Real-time PCR of AN01, CFTR and ENaC mRNA in IL-4-treated HNE cells. The format is cell-based, human. The following applies: long-term treatment (F10: 120 hours). How it is done:
(§1) The total messenger RNA (mRNA) was extracted using TRIzol reagent (Invitrogen, Carlsbad, CA, USA), and was reverse-transcribed using a random hexamer primer, an oligo(dT) primer and SuperScript® III reverse transcriptase (Invitrogen). Quantitative real-time PCR was performed using StepOnePlus Real-Time PCR system (Applied Biosystems, Foster City, CA, USA) and Thunderbird SYBR qPCR mix (Tokyobo, Osaka, Japan). Thermal cycling conditions included the initial stage at 95° C. for 5 minutes, and subsequent 40 cycles at 95° C. for 10 seconds, at 55° C. for 20 seconds and at 72° C. for […].

Series [2] addresses T1, human AN01 (Homo sapiens, UniProt Q5XXA6, DEL476-501).
T1 construct: expressed in transfected cells; host or cells: FRT cells
Kind of series: AN01 chloride channel activity in FRT cells. The format is cell-based. How it is done:
(§2) (A) The inhibition of mouse pendrin (mPDS)-mediated Cl^−/I^− exchange activity by F56 was measured in CHO-K1 cells (mean±S.E., n=5). The indicated concentration of F56 was pretreated for 10 minutes. (B) Summary of dose-response for inhibition of the human pendrin (hPDS)-mediated (closed circle, FIG. (a), C) and mPDS-mediated (open circle) Cl^−/I^− exchange activity. (C-F) Representative traces of intracellular pH in CHO-K1 cells expressing SLC26A3, SLC26A6, SLC26A7 and SLC26A9 were shown. The application of Cl^− free solution induced intracellular alkalization by Cl^−/HCO3^− exchange. The indicated concentration of F56 was pretreated for 10 minutes. (G) the effect of F56 (100 μM) on the CFTR chloride channel activity was measured in FRT cells expressing human CFTR. […] (H) The effect of F56 (100 μM) on the AN01 chloride channel activity was measured in FRT cells expressing human AN01. […] (I) The effect of F56 on the hERG (Kv11.1) potassium channel activity was measured in HEK293T cells expressing human Kv11.1 (mean±S.E., n=4). […] (J) The effect of F56 on the 5-HT2A channel activity was measured in FRT cells expressing human 5-HT2A (mean±S.E., n=4). […]
(§3) (A) The effect of F10 (30 μM) on the CFTR channel was measured in FRT cells expressing human CFTR and mutant YFP. […] (B) The effect of F10 (30 μM) on the AN01 channel activity was measured in FRT cells expressing human and mutant YFP. […]

In series [3] the test system is PDS mRNA. Description: Real-time PCR of PDS mRNA in IL-4-treated HNE cells. The format is cell-based, human. The following applies: IL-4-treated HNE cells (F10: 120 hours after treatment). As to the method: as §1
The subject of series [4] is CHO-K1 cells. Description: Cell viability, MTS colorimetric analysis, CHO-K1. The format is cell-based, Chinese hamster. The note with it: 24 hours, up to 30 μM. As to the method:
(§4) (A) Pendrin-mediated Cl^−/I^− exchange activity (mean±S.E., n=5). The indicated concentration of F56 was pretreated for 10 minutes. (B, C) Representative tracing of intracellular pH. The application of Cl^− free solution induced intracellular alkalization through pendrin-mediated Cl^−/HCO3^− and Cl^−/OH^− exchange activity. The indicated concentration of F56 was pretreated for 10 minutes. (D-F) The pendrin-mediated Cl^−/I^− exchange activity was measured in CHO-K1 cells expressing human pendrin. The indicated concentration of F56, PDSinh-A01 and PDSinh-C01 was pretreated for 10 minutes. (G) Summary of dose-response of F56, PDSinh-A01 and PDSinh-C01 (mean±S.E., n=3). (H, I) Effect of F56, PDSinh-A01 and PDSinh-C01 on the cell viability in NIH3T3 (H) and CHO-K1 (I) cells. The cells were treated with F56, PDSinh-A01 and PDSinh-C01 for 24 hours. The cell viability was measured by MTS colorimetric analysis (mean±S.E., n=3). NTC, non-transfected cells.
(§5) The cells were treated with F10 for 24 hours. The cell viability was determined by MTS colorimetric analysis (mean±S.E., n=3).

Series [5] deals with NIH3T3 cells. Description: Cell viability, MTS colorimetric analysis, NIH3T3. The format is cell-based. The following applies: 24 hours, up to 30 μM. How it is done:
as §4, §5

Series [6] addresses T2, human CFTR (Homo sapiens, UniProt P13569).
T2 construct: expressed in transfected cells; host or cells: FRT (Fischer rat thyroid) cells; for F10 also expressing mutant YFP
Kind of series: CFTR chloride channel activity in FRT cells. Type of series: cell-based. How it is done: as §2, §3

The mark [7] stands for this setting: 30 μM, FRT cells with mutant YFP.

T2 sequence (P13569 whole entry): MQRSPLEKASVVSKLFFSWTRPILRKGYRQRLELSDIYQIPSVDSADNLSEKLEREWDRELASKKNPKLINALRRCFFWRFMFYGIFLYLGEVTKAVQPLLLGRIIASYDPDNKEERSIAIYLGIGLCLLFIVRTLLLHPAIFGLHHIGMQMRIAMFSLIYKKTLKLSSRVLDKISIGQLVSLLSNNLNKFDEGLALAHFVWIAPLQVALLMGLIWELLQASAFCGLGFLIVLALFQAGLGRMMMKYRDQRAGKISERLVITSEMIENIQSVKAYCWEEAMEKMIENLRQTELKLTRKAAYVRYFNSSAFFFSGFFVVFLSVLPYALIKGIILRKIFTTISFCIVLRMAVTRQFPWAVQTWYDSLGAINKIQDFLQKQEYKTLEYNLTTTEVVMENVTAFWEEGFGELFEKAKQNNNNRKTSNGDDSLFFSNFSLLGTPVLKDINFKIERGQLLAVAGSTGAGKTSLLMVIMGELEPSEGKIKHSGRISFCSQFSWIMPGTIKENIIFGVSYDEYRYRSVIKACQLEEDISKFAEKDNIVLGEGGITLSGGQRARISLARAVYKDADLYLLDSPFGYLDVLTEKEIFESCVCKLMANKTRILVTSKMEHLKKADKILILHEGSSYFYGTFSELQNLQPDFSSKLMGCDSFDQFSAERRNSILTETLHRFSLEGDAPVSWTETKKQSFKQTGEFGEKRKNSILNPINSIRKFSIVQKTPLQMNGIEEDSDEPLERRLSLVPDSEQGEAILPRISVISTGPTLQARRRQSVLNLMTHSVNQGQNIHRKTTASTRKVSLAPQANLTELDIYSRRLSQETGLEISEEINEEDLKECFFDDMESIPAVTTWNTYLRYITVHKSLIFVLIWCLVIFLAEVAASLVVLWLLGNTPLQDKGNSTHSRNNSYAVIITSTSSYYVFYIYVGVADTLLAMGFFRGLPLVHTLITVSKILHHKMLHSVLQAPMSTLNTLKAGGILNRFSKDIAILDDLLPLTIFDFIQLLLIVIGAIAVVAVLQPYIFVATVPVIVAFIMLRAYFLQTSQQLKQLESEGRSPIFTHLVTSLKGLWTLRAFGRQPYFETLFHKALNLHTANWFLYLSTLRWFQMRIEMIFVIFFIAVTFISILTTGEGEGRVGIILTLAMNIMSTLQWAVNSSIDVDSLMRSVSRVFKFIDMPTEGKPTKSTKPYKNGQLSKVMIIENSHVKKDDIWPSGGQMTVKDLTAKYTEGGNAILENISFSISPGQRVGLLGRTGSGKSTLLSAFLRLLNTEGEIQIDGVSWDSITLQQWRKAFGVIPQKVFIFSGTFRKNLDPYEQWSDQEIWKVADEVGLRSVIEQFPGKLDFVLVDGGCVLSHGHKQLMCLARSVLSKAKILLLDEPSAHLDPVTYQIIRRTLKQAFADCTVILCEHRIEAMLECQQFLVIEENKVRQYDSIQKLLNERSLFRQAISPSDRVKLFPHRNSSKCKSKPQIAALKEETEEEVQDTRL
T1 sequence (Q5XXA6 with tags, fused parts or gaps isoform Q5XXA6-5 DEL539-564): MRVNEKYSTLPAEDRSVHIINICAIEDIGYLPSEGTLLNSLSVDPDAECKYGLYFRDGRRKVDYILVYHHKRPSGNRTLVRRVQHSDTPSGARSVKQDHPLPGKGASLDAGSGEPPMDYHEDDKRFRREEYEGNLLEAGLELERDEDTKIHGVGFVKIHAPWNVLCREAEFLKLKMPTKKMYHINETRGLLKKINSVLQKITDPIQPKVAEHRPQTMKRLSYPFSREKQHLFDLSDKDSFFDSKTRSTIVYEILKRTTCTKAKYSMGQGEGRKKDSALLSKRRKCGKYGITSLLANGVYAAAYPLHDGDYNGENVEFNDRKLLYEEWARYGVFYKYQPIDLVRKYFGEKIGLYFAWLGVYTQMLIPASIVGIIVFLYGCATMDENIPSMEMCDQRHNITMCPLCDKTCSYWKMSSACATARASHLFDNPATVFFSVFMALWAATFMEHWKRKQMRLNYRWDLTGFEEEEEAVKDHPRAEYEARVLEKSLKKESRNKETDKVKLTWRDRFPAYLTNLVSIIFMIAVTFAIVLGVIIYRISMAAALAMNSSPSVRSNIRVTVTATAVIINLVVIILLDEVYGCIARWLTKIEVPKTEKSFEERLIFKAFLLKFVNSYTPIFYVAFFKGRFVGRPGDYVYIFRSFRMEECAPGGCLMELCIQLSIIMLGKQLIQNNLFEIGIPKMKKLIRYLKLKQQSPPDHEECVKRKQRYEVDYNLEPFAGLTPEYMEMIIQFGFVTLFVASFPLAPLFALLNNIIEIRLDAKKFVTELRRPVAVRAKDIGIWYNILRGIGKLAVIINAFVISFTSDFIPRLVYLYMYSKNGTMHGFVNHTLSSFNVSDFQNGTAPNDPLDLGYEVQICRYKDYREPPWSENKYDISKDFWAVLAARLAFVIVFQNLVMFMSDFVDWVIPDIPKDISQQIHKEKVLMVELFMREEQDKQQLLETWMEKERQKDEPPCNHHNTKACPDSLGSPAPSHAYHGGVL

Consider `CC(C)(C)c1ccc(C2=NC(=Cc3ccc[nH]3)C(=O)O2)cc1` [F10, 4-((1H-pyrrol-2-yl)methylene)-2-(4-(tert-butyl)phenyl)oxazol-5 (4H)-one], for which the “mRNA expression of AN01, CFTR and ENaC” value in series [1] is “did not show any effect”. Moreover, the “effect on AN01 channel activity” value in series [2] (setting [7]) is given as “did not show any effect”. For the same compound, in series [3], the “PDS mRNA expression level” value is on record as “did not show any effect”. In addition, the “cytotoxicity in CHO-K1 cells” value in series [4] is “did not show any cytotoxicity up to 30 μM”. Moreover, the “cytotoxicity in NIH3T3 cells” value in series [5] is recorded as “did not show any cytotoxicity up to 30 μM”. The “effect on CFTR channel activity” value in series [6] (setting [7]) is “did not show any effect”.

Consider `CC(C)(C)c1ccc(C2=NC(=Cc3cccs3)C(=O)O2)cc1` [F56, 2-(4-(tert-butyl)phenyl)-4-(thiophen-2-ylmethylene)oxazol-5(4H)-one], for which the “mRNA expression of AN01, CFTR and ENaC” value in series [1] is given as “did not change”. Besides, the “effect on AN01 activity” value in series [2] (100 μM, FRT cells, ATP-activated) is on record as “not affected”. Moreover, the “PDS mRNA expression level” value in series [3] is listed as “without changes of the mRNA expression level”. In addition, the “cytotoxicity in CHO-K1 cells” value in series [4] is on record as “did not show cytotoxicity up to 30 μM”. In addition, the “cytotoxicity in NIH3T3 cells” value in series [5] is “did not show cytotoxicity up to 30 μM”. In series [6] (100 μM, FRT cells, forskolin-activated), the “effect on CFTR activity” value is “not affected”.
